{"source": "patent US20220356174A1", "about": "“PYRIDIN-2-ONE COMPOUNDS USEFUL AS SMARCA2 ANTAGONISTS” (Epizyme, Inc., priority 2018, published 2022)", "test_system": "A549 subcutaneous xenograft", "assay": "Efficacy study in subcutaneous A549 xenograft model (tumor volume, tumor weight, TGI)", "assay_type": "in vivo, BALB/c nude mice", "details": "for Volume-based TGI(%) / Weight-based TGI(%): Day 21, P < 0.001", "protocol": "The efficacy of compound 82c was studied in vivo for the treatment of A549 subcutaneous xenograft model in BALB/c nude mice. Seventy-five BALB/c nude female mice were injected cell A549 at 1×10^7 per mouse.\nFifty mice were selected and assigned into five groups using randomized block design based upon their tumor volumes and 10 mice per group. The 5 groups were treated p.o. with vehicle (0.5% NaCMC 0.1% Tween pH4), compound 82c 5 mg/kg BIDx21, 12.5 mg/kg BIDx10/QDx11, 25 mg/kg BIDx7/QDx14 and 50 mg/kg QDx10/3 days off/30 mg/kg QDx8.\nAll mice from 12.5 mg/kg BID were adjusted from BID to QD from treatment Day 11 until to the end of the study. #36˜#40 mice from group 25 mg/kg BID were compound administration holiday due to mice body weight loss. All mice from group 25 mg/kg BID were adjusted from BID to QD from treatment Day 8. All mice from group 50 mg/kg QD were compound administration holiday from Day 11 to Day 13 due to mice body weight loss and this group was adjusted from 50 mg/kg to 30 mg/kg until the end of the study.\nTumor Inoculation. Each mouse was inoculated subcutaneously at the right flank with A549 tumor cells (1×10^7 cells/mouse) in 0.2 mL of base media (F12K) for tumor development. The treatments were started when the tumor size reached 126.94 mm^3 for the tumor efficacy study (Day 14 post inoculation). Fifty tumor-bearing mice were block randomized into 5 groups with 10 mice in each.\nTumor Measurements and Endpoints. The major endpoint was tumor growth delay or cure. Tumor size was measured twice weekly in two dimensions using a caliper, and the volume was expressed in mm^3 using the formula: V=0.5 a×b^2 where a and b were the long and short diameters of the tumor, respectively. The tumor size was then used for calculations of T/C (%) values. T/C (%) was calculated according to the following equation: T/C (%)=TRTV/CRTV×[…] TRTV=TVtreatment-Dn/TVtreatment-D1, CRTV=TVcontrol-Dn/TVcontrol-D1, T/C (%)<42%, it was considered to be effective. The tumor size was then used for calculations of TGI (%) values. TGI (%) was calculated according to the following equation: TGI (%)=(1−(TVTreatment/Dx−TVTreatment/D1)/(TVControl/Dx−TVControl/D1))×100%, TGI[…]58 means this medicine is effective. The tumor weight was then used for calculations of TGI (%) values. TGI (%) was calculated according to the following equation: TGI (%)=(1−TWTreatment/TWControl)×100%\nStatistical Analysis. Summary statistics, including mean and the standard error of the mean (SEM), were provided for the tumor volumes of each group at each time point. Statistical analyses of difference in tumor volumes among the groups were conducted on Day 21 after the last dose. Statistical analysis of difference in tumor volume and tumor weight among the groups was conducted. All data was analyzed using GraphPad Prism software. P<0.05 was considered to be statistically significant. A two-way ANOVA combined with Bonferroni post-test was performed to compare tumor volumes among vehicle and all treatment groups. A one-way ANOVA combined with Dunnett's Multiple Comparison Test to compare tumor weight among vehicle and all treatment groups.", "key": {"[1]": {"details": "50 mg/kg QD×10, 3 days off, 30 mg/kg QD×8, p.o."}}, "note": "Marks after values point to notes of the source that are not given here."}
{"compound": "N#Cc1cc(C(=O)Nc2cc(F)c(=O)n(CC(F)F)c2)sc1C(F)(F)F", "note": "[Compound 82c, 4-cyano-N-[1-(2,2-difluoroethyl)-5-fluoro-6-oxopyridin-3-yl]-5-(trifluoromethyl)thiophene-2-carboxamide]", "values": [{"measurement": "Tumor Volume (mm^3), Day 21", "setting": "5 mg/kg BID×21, p.o.", "value": "737.75 ± 78.79", "unit": "mm^3"}, {"measurement": "Tumor Weight (g), Day 21", "setting": "5 mg/kg BID×21, p.o.", "value": "0.773 ± 0.052", "unit": "g"}, {"measurement": "Volume-based TGI(%)", "setting": "5 mg/kg BID×21, p.o.", "value": "57.01* %"}, {"measurement": "Weight-based TGI(%)", "setting": "5 mg/kg BID×21, p.o.", "value": "47.23* %"}, {"measurement": "Tumor Volume (mm^3), Day 21", "setting": "12.5 mg/kg BID×10 QD×11, p.o.", "value": "579.14 ± 59.39", "unit": "mm^3"}, {"measurement": "Tumor Weight (g), Day 21", "setting": "12.5 mg/kg BID×10 QD×11, p.o.", "value": "0.609 ± 0.063", "unit": "g"}, {"measurement": "Volume-based TGI(%)", "setting": "12.5 mg/kg BID×10 QD×11, p.o.", "value": "68.31* %"}, {"measurement": "Weight-based TGI(%)", "setting": "12.5 mg/kg BID×10 QD×11, p.o.", "value": "58.44* %"}, {"measurement": "Tumor Volume (mm^3), Day 21", "setting": "25 mg/kg BID×7 QD×14, p.o.", "value": "469.53 ± 70.97", "unit": "mm^3"}, {"measurement": "Tumor Weight (g), Day 21", "setting": "25 mg/kg BID×7 QD×14, p.o.", "value": "0.509 ± 0.077", "unit": "g"}, {"measurement": "Volume-based TGI(%)", "setting": "25 mg/kg BID×7 QD×14, p.o.", "value": "75.87* %"}, {"measurement": "Weight-based TGI(%)", "setting": "25 mg/kg BID×7 QD×14, p.o.", "value": "65.26* %"}, {"measurement": "Tumor Volume (mm^3), Day 21", "setting": "[1]", "value": "461.87 ± 60.61", "unit": "mm^3"}, {"measurement": "Tumor Weight (g), Day 21", "setting": "[1]", "value": "0.496 ± 0.058", "unit": "g"}, {"measurement": "Volume-based TGI(%)", "setting": "[1]", "value": "76.56* %"}, {"measurement": "Weight-based TGI(%)", "setting": "[1]", "value": "66.17* %"}]}
